PMC8222276 (Communications Biology, 2021)

Assays:
Format in all cases: cell-based
[1] = molecular target: T1, AM1 receptor (CLR-RAMP2) in HUVECs (Homo sapiens, UniProt O60895+Q16602); experiment: ERK1/2 phosphorylation in HUVECs
T1 construct: HUVECs specifically express the AM1 receptor alone; host or cells: primary HUVECs
Experimental: (§1) Data are analysed using a three-parameter non-linear regression curve or the operational model of receptor agonism. g–h Signalling bias plots were calculated as ∆Log(τ/KA) (g) or ∆∆Log(τ/KA) (h) for each agonist and for each signalling pathway. […] Solid arrows indicate known pathways. Dashed arrows represent possible pathways.
Data are analysed using a three-parameter non-linear regression curve. All data represent mean ± SEM of n independent experiments. Statistical significance determined compared to control using an unpaired Student’s t test with Welch’s correction (*p < 0.05; **p < 0.01; ***p < 0.001).
Primary cells were grown in 6 well plates, on the day of the experiment media was replaced with serum free media 4 h prior to cell harvesting. Tyrpsin-EDTA was used to dissociate the cells and they were collected by centrifugation, counted and re-suspended HBSS/BSA (0.1%). Ligands were also diluted in HBSS/BSA. Cells were then plated on 384 well plates in 8 μl aliquots at a density of 20,000 cells/well. Next, ligands were added (4 μl) for 5 min stimulation at room temperature. Cells were then lysed as per to the manufacturer’s instructions with 4 μl of lysis buffer (Cisbio phosphor-ERK1/2 cellular assay kit, Invitrogen, UK) for 30 min shaking at room temperature. The 2 specific antibodies; were pre-mixed in a 1:1 ratio. 4 μl of this was added to each well and the plate incubated for a further 2 h. […] Antagonist studies were performed in the same way through co-stimulation with PTX (200 ng/ml), Rp-8-Br-cAMPS (100 μM), YM-254890 (100 nM), or ESI-09 (100 μM) as appropriate alongside control-treated cell.
(§2) All sample sizes were determined, and data analysed, in accordance with the guidelines described by Curtis M et al.[65]. All experiments were appropriately controlled using ‘system pathway’ agonists. If any of these pathway controls generated inappropriate responses, then the entire data set was removed from analysis. […] Data analysis for cAMP accumulation, Ca^2+i mobilisation, NO accumulation, pERK1/2 activation, and cell proliferation assays were performed in GraphPad Prism 8.4 (GraphPad Software, San Diego). Data were fitted to obtain concentration–response curves using either the three-parameter logistic equation using to obtain values of Emax and pEC50 or the operational model of agonism. Statistical differences were analysed using one-way ANOVA followed by Dunnett’s post-hoc (for comparisons amongst more than two groups) or unpaired Student’s t test with Welch’s correction (for comparison between two groups). To account for the day-to-day variation experienced from the cultured cells, we used the maximal level of cAMP accumulation from cells in response to 100 μM forskolin stimulation was used as a reference, 10 μM ionomycin for Ca^2+i assays, 10 μM phorbol 12-myristate 13-acetate (PMA) for pERK1/2 activation, 10 μM acetylcholine for NO production and 10 μM VEGF for cell proliferation. […] Where appropriate the operational model for receptor agonism[27] was used to obtain efficacy (τ) and equilibrium disassociation constant (KA) values. In both cases, this normalisation removes the variation due to differences in days but retains the variance for control values. The means of individual experiments were combined to generate the curves shown. Having obtained values for τ and KA these were then used to quantify signalling bias as the change in Log(τ/KA)[19],[28]. Error for this composite measure was propagated by applying Eq. 1.1 PooledSEM=(SEMA)^2+(SEMB)^2 Where, SEMA and SEMB are the standard error of measurement A and B.

[2] = molecular target: T2, AM1 receptor (CLR-RAMP2) in HUAECs (Homo sapiens, UniProt O60895+Q16602); experiment: ERK1/2 phosphorylation in HUAECs
T2 construct: host or cells: primary HUAECs
Experimental: Primary cells were grown in 6 well plates, on the day of the experiment media was replaced with serum free media 4 h prior to cell harvesting. Tyrpsin-EDTA was used to dissociate the cells and they were collected by centrifugation, counted and re-suspended HBSS/BSA (0.1%). Ligands were also diluted in HBSS/BSA. Cells were then plated on 384 well plates in 8 μl aliquots at a density of 20,000 cells/well. Next, ligands were added (4 μl) for 5 min stimulation at room temperature. Cells were then lysed as per to the manufacturer’s instructions with 4 μl of lysis buffer (Cisbio phosphor-ERK1/2 cellular assay kit, Invitrogen, UK) for 30 min shaking at room temperature. The 2 specific antibodies; were pre-mixed in a 1:1 ratio. 4 μl of this was added to each well and the plate incubated for a further 2 h.
as §2, with “B. […]” for “B.”

[3] = molecular target: T1, AM1 receptor (CLR-RAMP2) in HUVECs; experiment: total nitric oxide production in HUVECs; conditions: HUVEC
Experimental: as §1
(§3) Endothelial cells and HCMs were cultured as above. 24 h prior to assay cells were plated on Costar 96-well black clear bottom plates at 40,000 cells/well. The assay was performed according to the manufacturer’s protocol. Briefly, cells pre-incubated with NO dye and assay buffer 1 (Fluorometric Nitric Oxide Assay Kit, Abcam, UK) for 30 min at 37 °C in 5% CO2. Any inhibitors requiring 30 min pre-treatment (YM/L-NAME/DMSO control) were added at this point. Ligand stimulation occurred immediately after this for 15 min at 37 °C in 5% CO2. Stain and ligand solution was removed, assay buffer II was added, and wells were read immediately. The absorbance was measured using a Tecan T200 (Thermo Fisher Scientific UK) reader with an excitation/emission of 540/590 nm. Endothelial cell responses were normalised to 10 μM acetylcholine. HCM responses were normalised to 10 μM isoproterenol[63],[64].
as §2

[4] = molecular target: T3, CGRP receptor (CLR-RAMP1) in human cardiomyocytes (HCMs) (Homo sapiens, UniProt O60894+Q16602); experiment: total NO production in HCMs; conditions: HCM, 15 min, relative to 10 μM isoproterenol, mean ± SEM
T3 construct: primary human cardiomyocytes (HCMs) since these cells only expressed CLR and RAMP1; host or cells: primary human cardiomyocytes (HCMs)
Experimental: Data are analysed using a three-parameter non-linear regression curve or the operational model of receptor agonism. g, h Signalling bias plots were calculated as ∆Log(τ/KA) (g) or ∆∆Log(τ/KA) (h) for each agonist and for each signalling pathway. […] All data represent mean ± SEM for n repeats.
as §3, with “Any inhibitors requiring 30 min pre-treatment (YM/L-NAME/DMSO control) were added at this point. Ligand stimulation occurred immediately after this for 15 min at 37 °C in 5% CO2.” left out, “Endothelial cell responses were normalised to 10 μM acetylcholine. HCM responses were normalised to 10 μM isoproterenol[63],[64].” left out
All sample sizes were determined, and data analysed, in accordance with the guidelines described by Curtis M et al.[65]. […] Statistical differences were analysed using one-way ANOVA followed by Dunnett’s post-hoc (for comparisons amongst more than two groups) or unpaired Student’s t test with Welch’s correction (for comparison between two groups). […] Having obtained values for τ and KA these were then used to quantify signalling bias as the change in Log(τ/KA)[19],[28]. […]

[5] = pERK1/2, HUVEC, operational model, mean ± SEM
[6] = pERK1/2, HUAEC, operational model, mean ± SEM
[7] = NO, operational model, mean ± SEM

T1 sequence (Q16602 23-461): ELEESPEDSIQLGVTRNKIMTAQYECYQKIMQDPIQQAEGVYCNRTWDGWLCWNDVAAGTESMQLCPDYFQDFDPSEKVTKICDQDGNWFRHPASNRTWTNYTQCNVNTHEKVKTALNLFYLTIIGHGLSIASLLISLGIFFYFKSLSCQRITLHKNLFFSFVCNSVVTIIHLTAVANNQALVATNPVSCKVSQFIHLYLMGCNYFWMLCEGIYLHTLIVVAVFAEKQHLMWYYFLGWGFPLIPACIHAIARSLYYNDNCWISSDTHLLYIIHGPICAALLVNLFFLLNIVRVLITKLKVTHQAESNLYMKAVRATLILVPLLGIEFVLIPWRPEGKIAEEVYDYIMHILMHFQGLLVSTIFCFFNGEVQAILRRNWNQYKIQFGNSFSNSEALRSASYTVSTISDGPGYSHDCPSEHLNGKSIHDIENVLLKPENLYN
T1 sequence (O60895 43-175): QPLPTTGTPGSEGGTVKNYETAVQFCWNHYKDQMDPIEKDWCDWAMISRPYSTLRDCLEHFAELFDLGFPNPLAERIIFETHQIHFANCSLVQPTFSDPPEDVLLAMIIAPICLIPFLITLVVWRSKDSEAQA
T2 sequence (Q16602 23-461): as the sequence (Q16602 23-461) above
T2 sequence (O60895 43-175): as the sequence (O60895 43-175) above
T3 sequence (Q16602 23-461): as the sequence (Q16602 23-461) above
T3 sequence (O60894 27-148): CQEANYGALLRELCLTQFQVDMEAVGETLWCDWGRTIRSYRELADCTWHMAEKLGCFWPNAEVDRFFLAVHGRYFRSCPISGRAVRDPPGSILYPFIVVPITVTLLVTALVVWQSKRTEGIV

Row | SMILES | Emax ([1]; HUVEC) [%] | mechanism of ERK1/2 stimulation ([1]; HUVEC) | effect of PTX on ERK1/2 phosphorylation ([1]; HUVEC, PTX) | Transducer coefficient Log(τ/KA) ([1]; pERK1/2, HUVEC, calculated from Table S1) | logτ [1, 5] | pKA [1, 5] | Emax [2] [%] | Transducer coefficient Log(τ/KA) ([2]; pERK1/2, HUAEC, calculated from Table S1) | logτ [2, 6] | pKA [2, 6] | Emax [3] [%] | order of potencies for NO synthesis [3] | Transducer coefficient Log(τ/KA) ([3]; NO, calculated from Table S1) | logτ [3, 7] | pKA [3, 7] | Emax [4] [%]
1 | CSCC[C@H](NC(=O)[C@H](CC(C)C)NC(=O)[C@H](CCC(N)=O)NC(=O)[C@H](Cc1c[nH]c2ccccc12)NC(=O)[C@H](CC(C)C)NC(=O)[C@H](CCCNC(=N)N)NC(=O)[C@H](Cc1c[nH]cn1)NC(=O)[C@H](CO)NC(=O)[C@H](CC(C)C)NC(=O)[C@H](CC(N)=O)NC(=O)[C@H](CCC(N)=O)NC(=O)[C@@H](NC(=O)[C@H](CCC(N)=O)NC(=O)[C@@H]1CSSC[C@H](NC(=O)CNC(=O)[C@@H](NC(=O)[C@H](CCCNC(=N)N)NC(=O)[C@H](CC(C)C)NC(=O)[C@H](CC(C)C)NC(=O)[C@H](CCC(N)=O)NC(=O)[C@H](C)NC(=O)[C@H](CCC(N)=O)NC(=O)[C@@H](N)[C@@H](C)O)C(C)C)C(=O)N[C@@H](C(C)C)C(=O)N[C@@H](CC(C)C)C(=O)NCC(=O)N[C@@H]([C@@H](C)O)C(=O)N1)C(C)C)C(=O)NCC(=O)N1CCC[C@H]1C(=O)N[C@@H](C)C(=O)NCC(=O)N[C@@H](CCCNC(=N)N)C(=O)N[C@@H](CCC(N)=O)C(=O)N[C@@H](CC(=O)O)C(=O)N[C@@H](CO)C(=O)N[C@@H](C)C(=O)N1CCC[C@H]1C(=O)N[C@H](C(=O)N[C@@H](CC(=O)O)C(=O)N1CCC[C@H]1C(=O)N[C@@H](CO)C(=O)N[C@@H](CO)C(=O)N1CCC[C@H]1C(=O)N[C@@H](Cc1c[nH]cn1)C(=O)N[C@@H](CO)C(=O)N[C@@H](Cc1ccc(O)cc1)C(N)=O)C(C)C [AM2, adrenomedullin 2] | 33.3 ± 4.59 | mediated in a Gi/o-dependent manner | suppression of ERK1/2 phosphorylation | 5.06±0.21 | -0.35±0.08 | 5.41±0.19 | 17.6 ± 2.44 | 4.76±0.35 | -0.67±0.12 | 5.43±0.33 | 82.1 ± 4.62 | order of potencies AM2 > AM > CGRP | 6.80±0.17 | 0.65±0.09 | 6.15±0.15 | –
2 | CC[C@H](C)[C@H](NC(=O)[C@H](CCC(N)=O)NC(=O)[C@H](Cc1c[nH]cn1)NC(=O)[C@H](C)NC(=O)[C@H](CC(C)C)NC(=O)[C@H](CCCCN)NC(=O)[C@H](CCC(N)=O)NC(=O)[C@@H](NC(=O)[C@@H](NC(=O)[C@@H]1CSSC[C@H](NC(=O)CNC(=O)[C@H](Cc2ccccc2)NC(=O)[C@H](CO)NC(=O)[C@H](CCCNC(=N)N)NC(=O)[C@H](CC(C)C)NC(=O)CNC(=O)[C@H](CCC(N)=O)NC(=O)[C@H](Cc2ccccc2)NC(=O)[C@H](CC(N)=O)NC(=O)[C@H](CC(N)=O)NC(=O)[C@H](CCSC)NC(=O)[C@H](CO)NC(=O)[C@H](CCC(N)=O)NC(=O)[C@H](CCCNC(=N)N)NC(=O)[C@@H](N)Cc2ccc(O)cc2)C(=O)N[C@@H](CCCNC(=N)N)C(=O)N[C@@H](Cc2ccccc2)C(=O)NCC(=O)N[C@@H]([C@@H](C)O)C(=O)N1)[C@@H](C)O)C(C)C)C(=O)N[C@@H](Cc1ccc(O)cc1)C(=O)N[C@@H](CCC(N)=O)C(=O)N[C@@H](Cc1ccccc1)C(=O)N[C@H](C(=O)N[C@@H](CC(=O)O)C(=O)N[C@@H](CCCCN)C(=O)N[C@@H](CC(=O)O)C(=O)N[C@@H](CCCCN)C(=O)N[C@@H](CC(=O)O)C(=O)N[C@@H](CC(N)=O)C(=O)N[C@H](C(=O)N[C@@H](C)C(=O)N1CCC[C@H]1C(=O)N[C@@H](CCCNC(=N)N)C(=O)N[C@@H](CO)C(=O)N[C@@H](CCCCN)C(=O)N[C@H](C(=O)N[C@@H](CO)C(=O)N1CCC[C@H]1C(=O)N[C@@H](CCC(N)=O)C(=O)NCC(=O)N[C@@H](Cc1ccc(O)cc1)C(N)=O)[C@@H](C)CC)C(C)C)[C@@H](C)O [AM, adrenomedullin] | – | – | – | – | – | – | – | – | – | – | – | – | – | – | – | 47 ± 5.85
